{"source": "patent US10980777B2", "about": "“Indole derivatives as histone demethylase inhibitors” (Istituto Europeo di Oncologia S.r.l., priority 2017, dated 2021)", "key": {"[1]": {"target": "T1, human recombinant KDM1A/CoREST protein (Homo sapiens, UniProt O60341)", "T1 construct": "made in house; host or cells: E. coli", "test": "Assay of enzyme inhibition of KDM1A (LSD1), TR-FRET", "format": "biochemical", "details": "0.25 nM KDM1A/CoREST, 50 nM H3K4 monomethylated peptide, 20 min at RT; read-out: IC50, KDM1A (LSD1) enzyme inhibition", "protocol": "2.1 Assay of Enzyme Inhibition of KDM1A (LSD1)\nThe KDM1A inhibiting activity was determined using a TR-FRET assay (time resolved fluorescence resonance energy transfer, Lance® Ultra Demethylase technology (Perkin Elmer, Waltham, Mass., USA)), which comprises a Europium chelate donor dye (TRF0404, Perkin Elmer, Waltham, Mass., USA) together with ULight™ (TR0102, Perkin Elmer, Waltham, Mass., USA), a small molecular weight acceptor dye with a red-shifted fluorescent emission, and a biotinylated 21 amino acids histone H3-derived monomethylated peptide (H3K4me) [Lys(Me1)4]-Histone H3 (1-21)-GGK(biotin), (64355, Anaspec, Fremont, Calif., USA) as substrate. The intensity of the light emission is proportional to the level of biotinylated reaction product. The complex of human recombinant KDM1A/CoREST protein was produced in E. coli as separate proteins and co-purified as previously described.(Forneris, F. et al. Trends Biochem, Sci, 2008, 33, 181-189) (Forneris, F. et al. J. Biol. Chem. 2007, 282, 20070-20074).\nDemethylase Assay conditions: 0.25 nM KDM1A/CoREST protein and compound in 100% DMSO were added in a final volume of 48 μL assay buffer (Tris HCl 50 mM pH 8.8, NaCl 50 mM, DTT 1 mM, Tween-20 0.01% (by volume)) to each well of a 96 well half area flat bottom white plate (3693 Costar, Sigma-Aldrich, St. Louis, M, USA).\nDemethylase reaction was started by the addition of 50 nM histone H3K4 monomethylated. After 20 min at RT, 300 μM tranylcypromine (P8511-1G, Sigma-Aldrich, St. Louis, Mo. 63103) was added to stop the reaction.\nDetection step conditions: 10 μL of the assay mixture was transferred from the original plate into a 384 well white plate (6007290 OptiPlate™, Perkin Elmer, Waltham, Mass., USA) and 10 μL of the detection Mix containing 2 nM Eu-antibody and 10 nM U-Light-Streptavidin in 1× Lance Detection Buffer (TRF0404, TR0102, CR97100, Perkin Elmer, Waltham, Mass., USA). The resulting mixture was incubated in the dark for 1 h at RT. Then, TR-FRET signal was read by a fluorimeter (Infinite® F200, Tecan, Männedorf, Switzerland) (Excitation 320 nm, Emission 665 nm and 620 nm, delay time 50 μs, window time 100 μs).\nIC50 determination: The inhibitor concentrations ranged from 0.025 to 500 μM (serial 1:3 dilutions). The IC50 was calculated using GraphPad Software."}, "[2]": {"system": "Human leukemia MV4-11 cells", "test": "Cell growth, CellTiter-Fluor cell viability assay, MV4-11", "format": "cell-based", "details": "48 h incubation, read-out: IC50 against human leukemia MV4-11 cells", "source_text": "(§1) CellTiter-Flor® (Promega) is as a nonlytic, single-reagent-addition fluorescence assay that measures the relative number of living cells in a culture population after experimental manipulation. The CellTiter-Fluor™ Cell Viability Assay measures the conserved and constitutive protease activity within live cells and therefore acts as a marker for cell viability.\n(§2) Human leukemia MV4-11 cells, (obtained from the Deutsche Sammlung von Mikroorganismen und Zellkulturen, ACC 102) or NB4 cells, (obtained from the Deutsche Sammlung von Mikroorganismen und Zellkulturen) in exponential growth, were incubated for 48 h with different concentrations of the inhibitors. After 48 h a volume of CellTiter-Fluor® Reagent equal to one fifth of volume of cell culture medium was added. The content was mixed and incubates for at least 90 min at 37° C. degree to obtain a stable signal. The fluorescence was recorded using an excitation wavelength of 360 nm and an emission at 535 nm. The IC50 was calculated using GraphPad Software."}, "human leukemia NB4 cells": {"system": "human leukemia NB4 cells", "test": "Cell growth, CellTiter-Fluor cell viability assay, NB4", "format": "cell-based", "details": "NB-4, 48 h incubation, read-out: IC50 against human leukemia NB4 cells", "source_text": "as §1, §2"}}, "note": "Counter-ions that a name gives are not always drawn.", "data": [{"smiles": "Cn1c(C(=O)c2cn(CCOc3ccc(OCC4CCNCC4)cc3)c3ccccc23)cc2sccc21", "note": "[Compound 19, (4-methylthieno[3,2-b]pyrrol-5-yl)-[1-[2-[4-(4-piperidylmethoxy)phenoxy]ethyl]indol-3-yl]methanone hydrochloride]", "values": [{"measurement": "IC50", "setting": "[1]", "value": "< 500", "unit": "nM"}, {"measurement": "IC50", "setting": "[2]", "value": "< 10", "unit": "µM"}, {"measurement": "IC50", "setting": "human leukemia NB4 cells", "value": "< 10", "unit": "µM"}]}]}
